Laboratory results as given in US5218123A, “Didehydrotryptophan derivatives and pharmaceutical use thereof” (Warner-Lambert Company, priority 1992, dated 1993).

What follows are molecules tested against T1, Central CCK-B Receptors (Mus musculus, UniProt P56481) (assay: Binding to central CCK-B receptors: displacement of tritiated-pentagastrin from cerebral cortical membranes). Details: tritiated-pentagastrin 2 nM, 23° C., pH 7.2.
T1 construct: from tissue; host or cells: cerebral cortex membranes of male CFLP mice (30 to 40 g)
T1 sequence (P56481 1-453): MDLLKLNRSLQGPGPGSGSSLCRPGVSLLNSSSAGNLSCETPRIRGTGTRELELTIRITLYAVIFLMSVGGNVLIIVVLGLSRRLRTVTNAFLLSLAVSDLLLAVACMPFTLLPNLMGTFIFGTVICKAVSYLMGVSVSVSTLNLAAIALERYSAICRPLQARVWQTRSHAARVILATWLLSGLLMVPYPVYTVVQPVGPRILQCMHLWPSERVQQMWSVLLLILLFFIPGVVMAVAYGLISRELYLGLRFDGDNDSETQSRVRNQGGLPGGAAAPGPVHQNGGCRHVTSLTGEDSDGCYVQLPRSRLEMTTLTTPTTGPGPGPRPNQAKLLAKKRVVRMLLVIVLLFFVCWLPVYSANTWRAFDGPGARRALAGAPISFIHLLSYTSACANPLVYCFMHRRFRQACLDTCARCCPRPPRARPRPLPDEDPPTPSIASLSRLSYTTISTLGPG
Parameters: species or system mouse (male CFLP mice)
Method: The biological activity of compounds of the present invention was evaluated employing an initial screening test which rapidly and accurately measured the binding of the tested compound to known CCK receptor sites. […] (See Hays, et al, Neuropeptides 1:53-62, 1980; and Satuer et al, Science 208:1155-1156, 1980.)
In this screening test, the cerebral cortices taken from male CFLP mice weighing between 30 to 40 g were dissected on ice, weighed, and homogenized in 10 volumes of 50 mM Tris-HCl buffer (pH 7.4 at 0°-4° C.). The resulting suspension was centrifuged, the supernate was discarded, and the pellet was washed by resuspension in Tris-HCl buffer followed by recentrifugation. The final pellet was resuspended in 20 volumes of […] buffer (pH 7.2 at 23° C.) containing 130 mM NaCl, […], […], […], 5 mg/mL bovine albumin, and bacitracin (0.25 mg/mL).
In saturation studies, cerebral cortical membranes were incubated at 23° C. for 120 minutes in a final volume of 500 μL of Hepes incubation buffer (pH 7.2) together with 0.2-20 nM tritiated-pentagastrin (Amersham International, England).
In the displacement experiments, membranes were incubated with a single concentration (2 nM) of ligand, together with increasing concentrations ([…] to 10^-4 M) of competitive test compound. In each case, the nonspecific binding was defined as that persisting in the presence of the unlabeled octapeptide CCK26-33 (10^-6 M).
Following incubation, radioactivity bound to membranes was separated from that free in solution by rapid filtration through Whatman GF/B filters and washed three times with 4 mL of ice cold Tris-HCl buffer. Filters from samples incubated with tritiated pentagastrin were placed in polyethylene vials with 4 mL of scintillation cocktail, and the radioactivity was estimated by liquid scintillation spectrometry (efficiency 47% to 52%).
The specific binding to CCK receptor sites was defined as the total bound tritiated-pentagastrin minus the amount of tritiated-pentagastrin bound in the presence of 10^-6 octapeptide, CCK26-33.
Saturation curves for specific tritiated-pentagastrin binding to mouse cortical membranes were analyzed by the methods of Scatchard (Ann. New York Acad. Sci. 51:660-672, 1949), and Hill (J. Physiol. 40:IV-VIII, 1910), to provide estimates for the maximum number of binding sites (Bmax) and the equilibrium dissociation constant (Ka).
In displacement experiments, inhibition curves were analyzed by either logit-log plots or the iterative curve fitting computer program ALLFIT (DeLean, Munson, and Redbard, 1978) to provide estimates of the IC50 and nH (apparent Hill coefficient values). (IC50 values were defined as the concentration of test compound required to produce 50% inhibition of specific binding.)
The inhibition constant (Ki) of the test compound was then calculated according to the Cheng Prusoff equation: [formula] where [L]is the concentration of radiolabel and Ka is the equilibrium dissociation constant.
^a Binding affinity protocol Horwell, et al, J. Med. Chem. 34:404,
`O=C(O)C[C@H](Cc1ccccc1)NC(=O)/C(=C/c1c[nH]c2ccccc12)NC(=O)OC1C2CC3CC(C2)CC1C3` (stereo partly drawn) [Example 2, (Z)-N-[α,β-Didehydro-N-[(tricyclo[3.3.1.1^3,7]dec-2-yloxy)carbonyl]tryptophyl]-L -3-(phenylmethyl)-β-alanine] was tested, and the Ki was 0.013 µM. In the case of `COC(=O)CC(=O)Nc1ccccc1CCNC(=O)/C(=C/c1c[nH]c2ccccc12)NC(=O)OC1C2CC3CC(C2)CC1C3` (stereo not shown) [4, step 2], the Ki is reported as 0.616 µM. `O=C(O)C[C@H](Cc1ccccc1)NC(=O)C(=Cc1c[nH]c2ccccc12)NC(=O)OC1C2CC3CC(C2)CC1C3` (mixture of isomers) [Example 5, (E/Z)-N-[α,β-Didehydro-N-[(tricyclo[3.3.1.1^3,7]dec-2-yloxy)carbonyl]tryptophyl]-L-3-(phenylmethyl)-β-alanine] showed a Ki of 0.0003 µM. `O=C(N/C(=C\c1c[nH]c2ccccc12)C(=O)NCCc1ccccc1)OC1C2CC3CC(C2)CC1C3` (stereo not shown) [Example 1, Carbamic acid, [1-(1H-indol-3-ylmethylene)-2-oxo-2-[(2-phenylethyl)amino]ethyl]-, tricyclo[3.3.1.1^3,7]dec-2-yl ester, (Z)-] gave a Ki of 1.52 µM. Molecule `O=C(N/C(=C\c1c[nH]c2ccccc12)C(=O)NCCc1ccccn1)OC1C2CC3CC(C2)CC1C3` (stereo not shown) [Example 3, Tricyclo[3.3.1.1^3,7]dec-2-yl (Z)-[1-(1H-indol-3-ylmethylene) -2-oxo-2-[[2-(2-pyridinyl)ethyl]amino]ethyl]carbamate] has a Ki of 0.507 µM. With `O=C(O)CC(=O)Nc1ccccc1CCNC(=O)/C(=C/c1c[nH]c2ccccc12)NC(=O)OC1C2CC3CC(C2)CC1C3` (stereo not shown) [Example 4, (Z)-3-[[2-[2-[[3-(1H-indol-3-yl)-1-oxo-2-[[(tricyclo[3.3.1.1^3,7]dec-2-yloxy)carbonyl]amino]-2-propenyl]amino]ethyl]phenyl]amino]-3-oxopropanoic acid] the Ki was 0.209 µM.

These molecules were tested on hyperactivity caused by the injection of amphetamine into the nucleus accumbens of the rat (assay: Reduction of hyperactivity caused by intra-accumbens amphetamine (locomotor activity, antipsychotic test)). Details: bilateral injection of amphetamine (20 μg) into the nucleus accumbens, 20 to 40 minutes after injection.
Format: in vivo, rat (male Sprague Dawley (CD) Bradford strain)
Method: The compounds of the instant invention are useful as antipsychotic agents. The compounds are tested for their ability to reduce the effects of intra-accumbens amphetamine in the rat as described hereinafter.
Male Sprague Dawley (CD) Bradford strain rats are used. The rats are housed in groups of five at a temperature of 21°±2° C. on a 12-hour light-dark cycle of lights-on between 07 hours 00 minutes and 20 hours 00 minutes. Rats are fed CRM diet (Labsure) and allowed water ad libitum.
Rats are anesthetized with chloral hydrate (400 mg/kg^-1 SC) and placed in a Kopf stereotaxic frame. Chronically indwelling guide cannulae (constructed of stainless steel tubing 0.65 mm diameter held bilaterally on Parspex holders) are implanted using standard stereotaxic techniques to terminate 3.5 mm above the center of the nucleus accumbens (Ant. 9.4, Vert. 0.0, Lat. 1.6) or 5.0 mm above the central nucleus of the amygdala (Ant. 5.8, Vert. -1.8, lat. ±4.5) (atlas of De Groot, 1959). The guides are kept patent during a 14 day recovery period using stainless steel stylets, 0.3 mm diameter, which extend 0.5 mm beyond the guide tips.
Rats are manually restrained and the stylets removed. […]
The abilities of the compounds (20) and (20A) to inhibit the hyperactivity caused by the injection of amphetamine into the nucleus accumbens of the rat is measured. […]
Work on `CC(N)Cc1ccccc1` (stereo not shown) [amphetamine] yielded a peak hyperactivity of 50 to 60 counts 5 minutes^-1.
